Patent US6036958A, “Tsetse thrombin inhibitor” (Yale University, priority 1999, dated 2000)
No end group written: not given here.

B1: recombinant antistasin: from the leech Haementaria officinalis, potent and specific inhibitor of factor Xa (protein, UniProt P15358 18-136, looked up)
Antistasin: QGPFGPGCEEAGCPEGSACNIITDRCTCSGVRCRMHCPHGFQRSRYGCEFCKCRLEPMKATCDISECPEGMMCSRLTNKCDCKIDINCRKTCPNGLKRDKLGCEYCECRPKRKLIPRLS

Experiments:
[1] = system: collagen induced platelet aggregation; assay: Platelet aggregation assay, collagen induced; assay type: cell-based, human; settings: purified TTI
Protocol: (§1) Platelet Aggregation Assay. Blood from a healthy human volunteer was collected by venipuncture, anticoagulated with 1/10 volume of 0.08 M trisodium citrate, and centrifuged at 150 g for 10 min. The platelet rich plasma (PRP) was withdrawn and acidified to pH 6.4 using 0.15 M citric acid^15. The PRP was then centrifuged at 370 g for 20 min and the supernatant discarded. The platelet pellet was resuspended in Tyrodes solution (pH 7.4) with 3.13% wt/vol trisodium citrate and counted in a Coulter counter (Coulter Electronics, Hialeah, Fla.). The concentration of platelets was adjusted to 3×10^4 /μl prior to use.

[2] = system: ADP induced platelet aggregation; assay: Platelet aggregation assay, ADP induced; assay type: cell-based, human; settings: purified TTI
Protocol: as §1

thrombin = thrombin (Homo sapiens, UniProt P00734); assay: Single stage chromogenic assay of thrombin inhibition (S-2238); assay type: biochemical; settings: purified protein
Protocol: Thrombin Assays. A single stage chromogenic assay of thrombin inhibition was used to monitor SGE activity. 100 μl of thrombin, diluted to a concentration of 1 nM in 10 mM HEPES, pH 7.5 containing 0.1% bovine serum albumin and 150 mM NaCl (HBSA), was incubated with 50 µl of SGE, column fractions (diluted 1:1000 in HBSA), or purified TTI for 15 min at 25° C. in a 96 well microtiter plate. Following the addition of […], the initial rate (mOD/min) of substrate hydrolysis over 5 min was measured at 405 nm using a Vmax kinetic microplate reader (Molecular Devices, Palo Alto, Calif.). Results were expressed as percent inhibition of thrombin activity using the following formula:
Percent inhibition=1--(inhibited rate/uninhibited rate)×100

[3] = system: thrombin induced platelet aggregation; assay: Platelet aggregation assay, thrombin induced; assay type: cell-based; settings: washed human platelets; TTI 0, 0.001, 0.5, 1.0 nM; thrombin 0.2 NIH U/ml
Protocol: as §1
To determine the effect of TTI on thrombin induced aggregation, 200 μl of washed platelets were warmed to 37° C. in a Born multi-channel aggregometer in the presence of increasing concentrations of purified TTI. Aggregation was then recorded following the addition of 20 μl of thrombin (Boehringer-Mannheim, Indianapolis, Ind.) at a final concentration of 0.2 NIH U/ml. The aggregometer was calibrated to 100% light transmission, ie 0% aggregation, using Tyrodes solution.

[4] = system: restenosis following angioplasty; settings: rabbits; cited from earlier work

| Molecule | effect on collagen induced aggregation [1] | effect on ADP induced aggregation [2] | inhibitory activity against thrombin (thrombin) | inhibition of platelet aggregation in response to thrombin [3] | reducing restenosis following angioplasty, compared with heparin [4] |
| --- | --- | --- | --- | --- | --- |
| TTI: low molecular weight polypeptide (about 3530 Da) purified from Glossina morsitans morsitans salivary glands; residues 19 to 50 of SEQ ID NO: 2 (GEPGAPIDYDEYGDSSEEVGGTPLHEIPGIRL) | no effect | no effect | potent, tight-binding inhibitor of thrombin | dose dependent inhibition of platelet aggregation | – |
| tick anticoagulant peptide: from Ornithodoros moubata, potent and specific inhibitor of factor Xa (YNRLCIKPRDWIDECDSNEGGERAYFRNGKGGCDSFWICPEDHTGADYYSSYRDCFNACI; ends and bridges not checked; cysteine pairing not given here; UniProt P17726 1-60, looked up) [reference compound] | – | – | – | – | superior to heparin |
| B1 | – | – | – | – | superior to heparin |
